The subject of assay [1] is human umbilical vein endothelial cells (HUVECs) in co-culture with normal human dermal fibroblasts (NHDF). Put plainly: in vitro angiogenesis assay, HUVEC-NHDF co-culture, CD31 immunostaining. Format: cell-based. Particulars: for Grading / Morphology / Area % (percent of the area covered by HUVEC as observed by CD31 staining): 1 mM; for Area % (percent of the area covered by HUVEC as observed by CD31 staining): medium control 10.2, DMSO 8.4. The protocol: The antiangiogenic effects of the compounds were determined in a previously developed assay, designed to evaluate the growth and differentiation of human umbilical vein endothelial cells (HUVECs) in co-culture with normal human dermal fibroblasts (NHDF). […] The cluster morphology known from (S)-levamisole, was also observed for tetramisole (2) (Figure 5B and Table 1), p-bromolevamisole (3) (Figure 5C and Table 1), and N-methyllevamisoles (7a, b), with the latter mentioned showing a slightly more pronounced effect (Figure 5E and F, Figure 6 A–D, Table 1). […] Compound 4 (Figure 5D and Table 1), on the other hand, inhibited the capillary network formation to give small cords exclusively, which is reminiscent of the effect of suramin (5) (Figure 5N and Table 1), another well-known angiogenesis inhibitor [44], [51].
Co-culture cell assays were performed according to a method described previously, [44]. Briefly, 10^3 NHDFs were cultured in each well of a 96-well microtiter plate in NHDF standard medium (100 μL, FGM-2 Bullet kit) at 37°C in an atmosphere containing 5% CO2. After 3 days the medium was removed and 10^3 HUVECs were seeded onto the NHDF in TFSM2 medium (135 μL). The samples of the individual compounds were prepared by weight and dissolved in a concentration of […] in DMSO, PBS, or Milli-Q water followed by pH adjustment, and sterile filtration through 0.22 μm filters. Medium, buffer controls or test samples of 15 µL were added to each well containing the HUVEC–NHDF co-culture and were incubated for 3 days. Experiments were repeated 2–4 times with identical results.
HUVEC and fibroblasts were stained with a CD31 antibody according to the method previously described, [44]. Briefly, the cells were washed with PBS, fixed with ethanol, blocked with TTN buffer, incubated with mouse anti-human CD31 diluted 1∶250 in TTN buffer, washed in TTN buffer and incubated with alkaline phosphatase-conjugated goat anti-mouse IgG diluted 1∶1000 in TTN buffer. Bound antibody was subsequently visualised with BCIP/NBT and inspected in an Olympus IX70 microscope and photographed with an Olympus DP12 digital camera (Magnification: 40x). Image analysis was carried out using the program AnalySIS (Soft Imaging Systems, Münster, Germany).

Assay [2] addresses T1, human placenta alkaline phosphatase (HPAP) (Homo sapiens, UniProt P05187).
T1 construct: alkaline phosphatase (0.01 U/mL) from human placenta or bovine kidneys; from tissue; host or cells: human placenta
Put plainly: Alkaline phosphatase assay (p-nitrophenyl phosphate), human placenta enzyme. Format: biochemical. As for the experimental part:
(§1) The levamisole derivatives were diluted to 2.5, 5 and 10 mM in DMSO. Samples (10 µL) and 90 µL solution of alkaline phosphatase (0.01 U/mL) from human placenta or bovine kidneys diluted in substrate buffer were added to a 96-well microtiter plate and incubated for 35 minutes at room temperature. Hereafter, 100 µL p-nitrophenyl phosphate (2 mg/mL) were added, and the plate was read at 405 nm with background subtraction at 650 nm on a Versamax Elisa reader (Molecular Devices, Sunnyvale, CA, USA) after 24 and 35 min. Results were obtained as the mean of double determinations. The EC50 values were read from the curve at half maximal absorbance.

A further assay has as its system tumor growth. Particulars: 12 mg/kg in nude mice; cited from earlier work.
The target of assay [3] is T2, bovine kidney tissue non-specific alkaline phosphatase (TNAP) (Bos taurus, UniProt P09487).
T2 construct: alkaline phosphatase (0.01 U/mL) from human placenta or bovine kidneys; from tissue; host or cells: bovine kidneys
T2 sequence (P09487 18-499 limits assumed): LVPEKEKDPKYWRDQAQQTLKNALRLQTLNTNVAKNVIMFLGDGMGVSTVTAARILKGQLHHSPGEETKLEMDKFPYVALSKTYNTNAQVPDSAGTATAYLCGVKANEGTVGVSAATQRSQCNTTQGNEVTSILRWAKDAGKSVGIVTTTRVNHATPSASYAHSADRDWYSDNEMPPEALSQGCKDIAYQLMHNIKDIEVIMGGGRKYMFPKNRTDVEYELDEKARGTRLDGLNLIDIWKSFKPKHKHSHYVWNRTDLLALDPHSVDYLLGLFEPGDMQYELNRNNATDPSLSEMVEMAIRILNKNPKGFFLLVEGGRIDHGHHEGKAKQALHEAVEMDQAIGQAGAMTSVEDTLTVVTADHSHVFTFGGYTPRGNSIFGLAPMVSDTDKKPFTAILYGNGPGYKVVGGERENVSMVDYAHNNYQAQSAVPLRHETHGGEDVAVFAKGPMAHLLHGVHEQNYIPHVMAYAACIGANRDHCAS
Put plainly: Alkaline phosphatase assay (p-nitrophenyl phosphate), bovine kidney enzyme. Format: biochemical. As for the experimental part: as §1

Assay [4] concerns the target T3, sirtuin 1 (SIRT1) (Homo sapiens, UniProt Q96EB6).
T3 construct: purchased Biomol BML-AK555
Briefly: SIRT1 activation assay (Fluor-de-Lys fluorogenic). Format: biochemical. Particulars: Figure 7. As for the experimental part: The assay was essentially performed as described above for the deacetylase inhibition, but with different concentrations of enzyme and substrate [Fluor-de-Lys SIRT1 substrate (25 μM), NAD^+ (25 μM), SIRT1 (1 U/well)], and using resveratrol as positive control. Two individual assays were performed in duplicate.

Assay [5] concerns the target T3, sirtuin 1 (SIRT1). Put plainly: SIRT1 inhibition assay (Fluor-de-Lys fluorogenic). Type of assay: biochemical. The protocol: The assay was performed according to protocols provided by the supplier (Biomol, BML-AK555). Briefly, the dose–response experiments were performed in black low binding NUNC 96-well microtiter plates. The dilution series were prepared in Milli-Q water from 100 mM DMSO stock solutions. Fluor-de-Lys SIRT1 substrate (250 μM), NAD^+ ([…]), and SIRT1 (2 U/well) were incubated in SIRT assay buffer prepared as described in the Biomol product sheets [Tris/Cl (50 mM), NaCl (137 mM), KCl (2.7 mM), MgCl2 (1 mM), pH 8.0, 1 mg/mL bovine serum albumin] in the presence or absence of the appropriate dilution of compound 7a or suramin. After 1 hour at 37°C, nicotinamide (2 mM) and developer (50 μL, 2×) were added, and the assay development was allowed to proceed for 15–30 minutes at room temperature, before the plate was read using a Tecan plate reader with excitation at 360 nm and emission at 460 nm. Two individual assays were performed in duplicate.

Results on two compounds are retold here after PMC3443238, “Synthesis and Antiangiogenic Activity of N-Alkylated Levamisole Derivatives” (PLoS ONE, 2012).

Each structure is given as a SMILES string. Structures can show the parent of a compound that is named as a salt.

T3 sequence (Q96EB6 whole entry): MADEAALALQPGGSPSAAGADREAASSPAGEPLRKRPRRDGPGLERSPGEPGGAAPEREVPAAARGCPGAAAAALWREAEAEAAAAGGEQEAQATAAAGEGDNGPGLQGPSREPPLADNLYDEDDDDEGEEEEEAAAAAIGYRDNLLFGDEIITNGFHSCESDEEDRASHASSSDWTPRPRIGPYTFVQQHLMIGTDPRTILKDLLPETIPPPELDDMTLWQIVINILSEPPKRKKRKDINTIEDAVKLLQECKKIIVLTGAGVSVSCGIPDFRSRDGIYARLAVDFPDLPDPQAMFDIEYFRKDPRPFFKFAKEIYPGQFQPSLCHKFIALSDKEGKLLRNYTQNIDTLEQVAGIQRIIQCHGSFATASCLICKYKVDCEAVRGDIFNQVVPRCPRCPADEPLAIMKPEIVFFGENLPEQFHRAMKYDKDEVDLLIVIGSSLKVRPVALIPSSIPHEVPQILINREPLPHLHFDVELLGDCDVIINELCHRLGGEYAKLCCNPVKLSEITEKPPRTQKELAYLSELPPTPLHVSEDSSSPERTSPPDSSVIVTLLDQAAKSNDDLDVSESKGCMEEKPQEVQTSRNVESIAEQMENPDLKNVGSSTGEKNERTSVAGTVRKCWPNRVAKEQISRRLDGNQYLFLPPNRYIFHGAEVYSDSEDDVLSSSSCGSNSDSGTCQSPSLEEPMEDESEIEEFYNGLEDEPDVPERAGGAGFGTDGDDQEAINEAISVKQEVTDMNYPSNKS
T1 sequence (P05187 23-506 limits assumed): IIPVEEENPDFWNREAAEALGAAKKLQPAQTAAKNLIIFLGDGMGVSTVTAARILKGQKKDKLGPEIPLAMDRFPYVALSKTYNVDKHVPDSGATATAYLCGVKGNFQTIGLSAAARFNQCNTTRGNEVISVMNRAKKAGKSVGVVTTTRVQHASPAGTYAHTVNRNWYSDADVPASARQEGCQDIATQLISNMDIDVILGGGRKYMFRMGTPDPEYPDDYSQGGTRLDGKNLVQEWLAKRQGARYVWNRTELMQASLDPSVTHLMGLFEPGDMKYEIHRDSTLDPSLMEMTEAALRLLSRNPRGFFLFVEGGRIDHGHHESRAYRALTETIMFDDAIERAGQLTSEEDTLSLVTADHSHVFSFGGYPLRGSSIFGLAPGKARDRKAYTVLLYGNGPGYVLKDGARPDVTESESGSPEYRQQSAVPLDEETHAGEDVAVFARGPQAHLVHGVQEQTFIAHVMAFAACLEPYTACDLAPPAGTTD

Regarding `c1ccc([C@H]2CN3CCSC3=N2)cc1` [Compound 1, (S)-levamisole hydrochloride, reference compound], in assay [1], the Grading result is given as “++ (clusters with area >4%)”, the Morphology entry is recorded as “Clusters” and the “Area % (percent of the area covered by HUVEC as observed by CD31 staining)” value came to 7.5%. In assay [2], the IC50 (usually the midpoint of a concentration-inhibition curve) was found to be 1100 µM. Besides, in the assay with tumor growth, the tumor growth inhibition result was “significant tumor growth inhibition”. For the same compound, the IC50 in assay [3] is 600 µM.

Regarding `C[N+]1=C2SCCN2C[C@@H]1c1ccccc1` [Compound 7a, N-methyllevamisole triflate], in assay [1], the Grading result is reported as “++++ (clusters with area <4%)”, the Morphology entry is reported as “Clusters” and the “Area % (percent of the area covered by HUVEC as observed by CD31 staining)” value was found to be 2.8%. For the same compound, in assay [1] (Figure 5, Table 1), the “inhibition of angiogenesis compared with (S)-levamisole hydrochloride (1)” value is “more potent than (S)-levamisole hydrochloride”. The “concentration at which the cluster-inducing effect is already exerted (titration)” value in assay [1] (titration experiments, Figure 6F) worked out at 30 µM. In addition, the “activation of SIRT1 compared to resveratrol” value at sirtuin 1 (SIRT1) [4] is reported as “ruled out interaction with this regulatory enzyme”. This compound came in with a half-inhibitory concentration (IC50) in assay [2] of over 2000 µM. In addition, the “SIRT1 inhib. (1 μM)” value on sirtuin 1 (SIRT1) [5] (1 μM) is “Not active^b”. The “deacetylation compared to the control wells” value on sirtuin 1 (SIRT1) [5] (at 10 μM and 100 μM, data not shown) is recorded as “elevated values of deacetylation”. Further, the “inhibition of SIRT1 deacetylase activity” value at sirtuin 1 (SIRT1) [5] (standard fluorogenic assay in vitro) was “no inhibitory effect”. The same compound yielded an IC50 in assay [3] of 100 µM.
